Type in all cases: cell-based
Test [1] deals with proteins of HEK293T cells transiently overexpressing caspase-6 (Homo sapiens, UniProt P14866). To be noted: exp_ref Probe; protein HNRNPL (P14866); analysis C6.
Test [2] concerns the target proteins of HEK293T cells transiently overexpressing caspase-6 (Homo sapiens, UniProt O43390). As to conditions: exp_ref Probe; protein HNRNPR (O43390); analysis C6.
For test [3], the target named is proteins of HEK293T cells transiently overexpressing caspase-6 (Homo sapiens, UniProt P62888). To be noted: exp_ref Probe; protein RPL30 (P62888); analysis C6.
Test [4] addresses proteins of HEK293T cells transiently overexpressing caspase-6 (Homo sapiens, UniProt O00571). As to conditions: exp_ref Probe; protein DDX3X (O00571); analysis C6.
Test [5] addresses proteins of HEK293T cells transiently overexpressing caspase-6 (Homo sapiens, UniProt O95373). To be noted: Probe; protein IPO7 O95373.
In test [6] the target is T1, proteins of HEK293T cells transiently overexpressing caspase-6 (Homo sapiens, UniProt Q07065).
T1 sequence (Q07065 1-602): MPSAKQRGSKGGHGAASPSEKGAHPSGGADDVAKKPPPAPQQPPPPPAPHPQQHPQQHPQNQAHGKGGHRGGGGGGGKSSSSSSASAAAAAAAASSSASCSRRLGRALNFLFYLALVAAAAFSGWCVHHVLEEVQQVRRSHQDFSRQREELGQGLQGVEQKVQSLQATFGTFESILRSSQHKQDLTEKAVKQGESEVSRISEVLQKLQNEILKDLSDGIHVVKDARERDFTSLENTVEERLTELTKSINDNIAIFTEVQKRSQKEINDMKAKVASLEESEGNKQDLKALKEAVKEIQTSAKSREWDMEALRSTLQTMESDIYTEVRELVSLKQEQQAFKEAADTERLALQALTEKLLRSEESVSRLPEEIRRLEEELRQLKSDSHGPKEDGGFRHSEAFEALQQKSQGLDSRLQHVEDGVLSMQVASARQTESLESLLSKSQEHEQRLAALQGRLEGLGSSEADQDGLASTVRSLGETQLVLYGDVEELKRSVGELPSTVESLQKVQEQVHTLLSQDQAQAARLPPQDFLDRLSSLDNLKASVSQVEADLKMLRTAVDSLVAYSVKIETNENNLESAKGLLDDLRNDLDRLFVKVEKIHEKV
As to conditions: protein CKAP4 (Q07065).

The target in test [7] is proteins of HEK293T cells transiently overexpressing caspase-6 (Homo sapiens, UniProt P13639). To be noted: protein EEF2 (P13639).
The target of test [8] is proteins of HEK293T cells transiently overexpressing caspase-6 (Homo sapiens, UniProt O94919). To be noted: exp_ref Probe; protein ENDOD1 (O94919); analysis C6.
Test [9] deals with proteins of HEK293T cells transiently overexpressing caspase-6 (Homo sapiens, UniProt P26599). As to conditions: exp_ref Probe; protein PTBP1 (P26599); analysis C6.
The target of test [10] is T2, proteins of HEK293T cells transiently overexpressing caspase-6 (Homo sapiens, UniProt P14324).
T2 sequence (P14324 1-419): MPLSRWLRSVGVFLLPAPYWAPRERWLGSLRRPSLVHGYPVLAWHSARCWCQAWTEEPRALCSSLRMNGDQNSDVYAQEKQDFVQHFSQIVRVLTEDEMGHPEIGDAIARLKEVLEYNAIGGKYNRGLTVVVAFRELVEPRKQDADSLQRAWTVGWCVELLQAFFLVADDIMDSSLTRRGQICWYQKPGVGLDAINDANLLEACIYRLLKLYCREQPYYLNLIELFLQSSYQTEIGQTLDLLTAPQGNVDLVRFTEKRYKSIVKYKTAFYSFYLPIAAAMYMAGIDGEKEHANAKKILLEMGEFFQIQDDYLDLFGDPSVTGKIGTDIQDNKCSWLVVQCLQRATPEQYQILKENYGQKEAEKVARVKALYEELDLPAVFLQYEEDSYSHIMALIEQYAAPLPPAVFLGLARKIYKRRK
To be noted: Probe; protein FDPS P14324.

Test [11] addresses T3, proteins of HEK293T cells transiently overexpressing caspase-6 (Homo sapiens, UniProt P28074).
T3 sequence (P28074 60-263): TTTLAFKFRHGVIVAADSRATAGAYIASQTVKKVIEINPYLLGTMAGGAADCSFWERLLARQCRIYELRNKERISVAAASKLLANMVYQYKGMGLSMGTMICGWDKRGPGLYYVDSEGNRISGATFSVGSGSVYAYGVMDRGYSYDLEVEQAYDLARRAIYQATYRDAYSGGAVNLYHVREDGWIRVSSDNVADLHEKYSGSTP

The target of test [12] is proteins of HEK293T cells transiently overexpressing caspase-6 (Homo sapiens, UniProt P62826). As to conditions: exp_ref Probe; protein RAN (P62826); analysis C6.
Test [13] concerns the target proteins of HEK293T cells transiently overexpressing caspase-6 (Homo sapiens, UniProt Q86YZ3). To be noted: Probe; protein HRNR Q86YZ3.
Test [14] deals with proteins of HEK293T cells transiently overexpressing caspase-6 (Homo sapiens, UniProt P33176). As to conditions: Probe; protein KIF5B P33176.
Test [15] has as its target proteins of HEK293T cells transiently overexpressing caspase-6 (Homo sapiens, UniProt P49368). To be noted: exp_ref Probe; protein CCT3 (P49368); analysis C6.
The target of test [16] is proteins of HEK293T cells transiently overexpressing caspase-6 (Homo sapiens, UniProt Q9BVP2). As to conditions: exp_ref Probe; protein GNL3 (Q9BVP2); analysis C6.

Read-outs that look alike come from different tables or passages of the source.

Chain of proteins of HEK293T cells transiently overexpressing caspase-6 (Homo sapiens, UniProt O00571) (O00571 whole entry): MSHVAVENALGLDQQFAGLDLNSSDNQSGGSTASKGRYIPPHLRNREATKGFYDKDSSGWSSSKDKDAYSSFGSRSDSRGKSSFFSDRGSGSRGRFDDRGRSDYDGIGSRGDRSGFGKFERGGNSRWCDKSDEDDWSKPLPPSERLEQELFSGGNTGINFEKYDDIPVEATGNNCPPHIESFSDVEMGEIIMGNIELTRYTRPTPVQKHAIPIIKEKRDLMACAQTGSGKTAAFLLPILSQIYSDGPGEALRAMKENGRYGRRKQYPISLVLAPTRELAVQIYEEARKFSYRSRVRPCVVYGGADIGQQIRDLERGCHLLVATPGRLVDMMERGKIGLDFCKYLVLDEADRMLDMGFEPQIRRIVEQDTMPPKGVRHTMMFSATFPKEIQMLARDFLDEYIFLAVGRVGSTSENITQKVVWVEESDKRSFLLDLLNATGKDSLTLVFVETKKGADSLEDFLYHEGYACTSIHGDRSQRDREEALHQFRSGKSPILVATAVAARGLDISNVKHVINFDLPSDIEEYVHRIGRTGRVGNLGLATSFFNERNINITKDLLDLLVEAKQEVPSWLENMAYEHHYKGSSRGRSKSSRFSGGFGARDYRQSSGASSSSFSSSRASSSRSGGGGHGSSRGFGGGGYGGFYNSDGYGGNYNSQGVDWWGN
Chain of proteins of HEK293T cells transiently overexpressing caspase-6 (Homo sapiens, UniProt Q9BVP2) (Q9BVP2 whole entry): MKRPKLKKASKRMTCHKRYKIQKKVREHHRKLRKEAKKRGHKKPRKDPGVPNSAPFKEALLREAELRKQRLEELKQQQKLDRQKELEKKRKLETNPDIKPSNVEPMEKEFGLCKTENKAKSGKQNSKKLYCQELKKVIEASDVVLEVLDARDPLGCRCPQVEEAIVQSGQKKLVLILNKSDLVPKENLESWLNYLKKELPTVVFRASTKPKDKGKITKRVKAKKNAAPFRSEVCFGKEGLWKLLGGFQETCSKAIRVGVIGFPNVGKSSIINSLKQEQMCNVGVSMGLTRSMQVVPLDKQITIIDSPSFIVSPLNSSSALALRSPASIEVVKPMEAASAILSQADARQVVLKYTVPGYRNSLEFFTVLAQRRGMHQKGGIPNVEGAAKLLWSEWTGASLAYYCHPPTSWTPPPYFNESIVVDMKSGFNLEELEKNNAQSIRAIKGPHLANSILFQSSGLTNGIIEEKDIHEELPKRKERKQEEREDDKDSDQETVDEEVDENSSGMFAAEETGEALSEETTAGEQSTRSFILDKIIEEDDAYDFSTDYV
Chain of proteins of HEK293T cells transiently overexpressing caspase-6 (Homo sapiens, UniProt Q86YZ3) (Q86YZ3 whole entry): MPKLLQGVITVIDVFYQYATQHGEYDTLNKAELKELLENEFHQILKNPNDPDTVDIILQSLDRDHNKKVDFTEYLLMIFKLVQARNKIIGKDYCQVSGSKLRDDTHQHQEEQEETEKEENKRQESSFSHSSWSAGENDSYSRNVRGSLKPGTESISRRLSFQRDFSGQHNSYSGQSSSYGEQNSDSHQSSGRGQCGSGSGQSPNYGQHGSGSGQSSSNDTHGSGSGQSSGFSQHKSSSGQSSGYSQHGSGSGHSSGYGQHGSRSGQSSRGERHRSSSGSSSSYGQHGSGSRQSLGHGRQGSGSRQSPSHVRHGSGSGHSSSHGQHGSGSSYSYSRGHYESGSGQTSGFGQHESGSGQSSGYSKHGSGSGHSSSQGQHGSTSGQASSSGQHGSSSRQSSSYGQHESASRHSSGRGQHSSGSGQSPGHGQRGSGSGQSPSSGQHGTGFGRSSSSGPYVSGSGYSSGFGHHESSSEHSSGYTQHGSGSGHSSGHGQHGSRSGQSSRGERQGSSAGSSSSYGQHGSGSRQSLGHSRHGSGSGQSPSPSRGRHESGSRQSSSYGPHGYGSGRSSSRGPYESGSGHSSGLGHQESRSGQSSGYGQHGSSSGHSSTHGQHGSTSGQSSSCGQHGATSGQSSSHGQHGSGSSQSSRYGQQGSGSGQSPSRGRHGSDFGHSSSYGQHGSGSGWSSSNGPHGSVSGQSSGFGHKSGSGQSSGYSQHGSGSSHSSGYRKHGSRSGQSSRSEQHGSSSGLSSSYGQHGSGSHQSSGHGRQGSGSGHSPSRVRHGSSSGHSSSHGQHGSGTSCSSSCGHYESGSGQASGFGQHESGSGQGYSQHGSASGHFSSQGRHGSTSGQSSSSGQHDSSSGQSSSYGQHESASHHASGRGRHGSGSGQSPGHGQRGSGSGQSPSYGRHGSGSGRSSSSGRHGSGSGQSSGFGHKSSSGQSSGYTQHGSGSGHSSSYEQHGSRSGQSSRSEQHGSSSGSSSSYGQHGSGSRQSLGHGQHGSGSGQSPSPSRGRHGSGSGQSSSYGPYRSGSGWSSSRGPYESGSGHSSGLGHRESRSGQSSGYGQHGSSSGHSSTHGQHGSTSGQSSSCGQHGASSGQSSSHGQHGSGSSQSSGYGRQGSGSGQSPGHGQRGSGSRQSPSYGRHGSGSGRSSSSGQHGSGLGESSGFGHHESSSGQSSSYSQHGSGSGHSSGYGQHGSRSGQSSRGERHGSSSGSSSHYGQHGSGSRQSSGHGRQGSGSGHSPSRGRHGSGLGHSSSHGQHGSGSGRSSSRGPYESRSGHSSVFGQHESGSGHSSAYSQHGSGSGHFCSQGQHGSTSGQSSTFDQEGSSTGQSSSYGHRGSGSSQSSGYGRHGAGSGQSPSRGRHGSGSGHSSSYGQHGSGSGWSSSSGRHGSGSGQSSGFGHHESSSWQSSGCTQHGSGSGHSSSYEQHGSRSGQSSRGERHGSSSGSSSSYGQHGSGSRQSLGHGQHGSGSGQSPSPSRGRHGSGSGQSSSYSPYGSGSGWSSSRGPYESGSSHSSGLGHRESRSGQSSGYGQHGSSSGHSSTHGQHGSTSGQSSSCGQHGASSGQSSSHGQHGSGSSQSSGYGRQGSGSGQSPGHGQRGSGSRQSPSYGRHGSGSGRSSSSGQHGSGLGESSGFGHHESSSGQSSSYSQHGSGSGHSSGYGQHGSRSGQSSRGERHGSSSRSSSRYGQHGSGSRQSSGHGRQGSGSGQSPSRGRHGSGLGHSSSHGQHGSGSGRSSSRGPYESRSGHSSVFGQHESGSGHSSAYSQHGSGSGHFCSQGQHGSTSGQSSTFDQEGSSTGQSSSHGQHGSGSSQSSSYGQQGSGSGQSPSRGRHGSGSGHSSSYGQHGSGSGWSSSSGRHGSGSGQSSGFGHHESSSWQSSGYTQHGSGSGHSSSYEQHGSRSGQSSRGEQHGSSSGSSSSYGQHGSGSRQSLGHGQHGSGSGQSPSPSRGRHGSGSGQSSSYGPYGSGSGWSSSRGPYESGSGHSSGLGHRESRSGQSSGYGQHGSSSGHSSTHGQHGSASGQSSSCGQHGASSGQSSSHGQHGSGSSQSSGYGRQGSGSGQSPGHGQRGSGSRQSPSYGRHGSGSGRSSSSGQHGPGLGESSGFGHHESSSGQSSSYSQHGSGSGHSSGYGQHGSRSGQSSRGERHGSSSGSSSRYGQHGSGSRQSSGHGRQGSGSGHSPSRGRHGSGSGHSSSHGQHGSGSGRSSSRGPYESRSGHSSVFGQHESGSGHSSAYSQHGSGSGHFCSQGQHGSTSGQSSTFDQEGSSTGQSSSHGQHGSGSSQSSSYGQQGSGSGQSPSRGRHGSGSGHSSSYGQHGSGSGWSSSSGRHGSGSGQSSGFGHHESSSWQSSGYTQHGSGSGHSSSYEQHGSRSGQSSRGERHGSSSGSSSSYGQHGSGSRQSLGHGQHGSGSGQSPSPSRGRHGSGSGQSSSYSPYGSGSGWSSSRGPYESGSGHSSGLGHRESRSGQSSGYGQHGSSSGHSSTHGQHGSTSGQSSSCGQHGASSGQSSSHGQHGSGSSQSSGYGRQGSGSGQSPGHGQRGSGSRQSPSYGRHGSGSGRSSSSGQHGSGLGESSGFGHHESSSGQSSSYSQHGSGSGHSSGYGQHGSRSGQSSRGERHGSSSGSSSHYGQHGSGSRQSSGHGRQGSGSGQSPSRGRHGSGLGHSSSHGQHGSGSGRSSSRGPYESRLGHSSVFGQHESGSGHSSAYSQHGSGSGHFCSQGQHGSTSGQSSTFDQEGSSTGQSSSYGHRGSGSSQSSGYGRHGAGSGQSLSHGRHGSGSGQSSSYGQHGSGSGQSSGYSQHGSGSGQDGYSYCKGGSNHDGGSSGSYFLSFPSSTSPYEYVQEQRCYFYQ
Chain of proteins of HEK293T cells transiently overexpressing caspase-6 (Homo sapiens, UniProt O43390) (O43390 whole entry): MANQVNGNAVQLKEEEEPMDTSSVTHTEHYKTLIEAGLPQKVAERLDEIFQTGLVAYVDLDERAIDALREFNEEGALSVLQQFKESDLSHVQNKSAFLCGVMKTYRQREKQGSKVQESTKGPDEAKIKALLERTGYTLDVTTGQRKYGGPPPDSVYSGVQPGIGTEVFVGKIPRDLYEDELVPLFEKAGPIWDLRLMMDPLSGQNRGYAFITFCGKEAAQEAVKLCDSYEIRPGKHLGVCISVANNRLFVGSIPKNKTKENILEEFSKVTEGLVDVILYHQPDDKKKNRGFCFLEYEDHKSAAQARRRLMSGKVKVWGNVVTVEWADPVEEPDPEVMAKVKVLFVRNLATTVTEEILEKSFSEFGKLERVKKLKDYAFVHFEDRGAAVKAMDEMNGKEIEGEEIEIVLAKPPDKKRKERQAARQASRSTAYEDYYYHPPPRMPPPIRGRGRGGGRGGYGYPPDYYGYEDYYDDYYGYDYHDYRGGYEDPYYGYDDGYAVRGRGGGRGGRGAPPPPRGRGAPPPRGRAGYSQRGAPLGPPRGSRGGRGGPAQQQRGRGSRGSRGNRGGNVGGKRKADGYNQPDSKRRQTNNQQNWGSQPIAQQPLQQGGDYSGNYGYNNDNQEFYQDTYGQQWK

On to `C#CCOc1ccc([C@@H]2C[C@@H](C(=O)Nc3ccc(OC(F)(F)F)cc3)CN(S(=O)(=O)C=C)C2)cc1` (relative stereo) [13-t], for which the enrich.exp.med in test [1] is given as 0.1244; in [2] it was 0.1675; in test [3], 0.3258; in [4] it was 0.1246; in test [5] it was -0.5106; in test [6] (exp_ref Probe, analysis C6), 2.313. Also, the enrich.exp.med in test [7] (exp_ref Probe, analysis C6) is 0.2961; in [8], -0.1243; in [9] it was 0.1008; in test [10], -1.278; in test [11] (Probe, protein PSMB5 P28074) it was -2.323; in test [12] it was 0.5777. In addition, the enrich.exp.med was -8.887 in test [13], -5.169 in [14], 0.6394 in test [15] and 0.541 in [16]. The enrich.exp.med.lin in [6] was 4.971; in test [6] (Expt Probe, analysis C6) it was 4.971; in [7], 1.228; in test [11] (protein PSMB5 (P28074)) it was 0.1999. In addition, the enrich.exp.med.log2 in test [6] is reported as 2.313; in test [6] (Expt Probe, analysis C6), 2.313; in test [7], 0.2961; in test [11] (protein PSMB5 (P28074)), -2.323.

The values above are taken from PMC10176470, “Engaging a Non-catalytic Cysteine Residue Drives Potent and Selective Inhibition of Caspase-6” (Journal of the American Chemical Society, 2023).
